# From patent publication US20150306232A1, “HYDROGELATORS COMPRISING D-AMINO ACIDS” (BRANDEIS UNIVERSITY, priority 2012, published 2015)
# Non-standard residues stand in square brackets, D forms with d. Residues, ends and D or L forms follow the SMILES beside them. *: point of attachment. Paclitaxel(2'-O-succinyl) = CC(=O)O[C@H]1C(=O)[C@@]2(C)[C@H]([C@H](OC(=O)c3ccccc3)[C@]3(O)C[C@H](OC(=O)[C@H](OC(=O)CCC(=O)*)[C@@H](NC(=O)c4ccccc4)c4ccccc4)C(C)=C1C3(C)C)[C@]1(OC(C)=O)CO[C@@H]1C[C@@H]2O; Naproxen = COc1ccc2cc([C@H](C)C(=O)*)ccc2c1; d(pY) = N[C@H](Cc1ccc(OP(=O)(O)O)cc1)C(=O)O; Acetyl(2-naphthyl) = O=C(Cc1ccc2ccccc2c1)*
# Tests used:
# HeLa cells = test: cells; format: cell-based; settings: 72 hours at 37° C., MTT; read-out: IC50, HeLa cell viability
# Protocol: We seeded […] (cells/well) of health HeLa cells into 96-well plate with 100 μL of MEM medium supplemented with 10% fetal bovine serum (FBS), 100 U/mL penicillin and 100 mg mL21 streptomycin. The incubation at 37° C. and 5% CO2 for 12 hours allowed HeLa cells to attach the bottom of 96-well plate. Then we replaced the medium by another 100 μL of growth medium that contained serial diluents of our compounds (0.5% DMSO) and then incubated the cells at 37° C. and 5% CO2 for additional 72 hours. During the measurement of proliferation for HeLa cells, which were assayed into three days, we added 10 μL of (3-(4,5-Dimethylthiazol-2-yl)-2,5-diphenyltetrazolium bromide (MTT, 0.5 mg/mL) into the assigned wells in their corresponding day every 24 hours, which was followed by adding 100 μL of 0.1% sodium dodecyl sulfate (SDS) 4 hours later. Then we collected the assay results after another 24 hours incubation. Since the mitochondrial reductase in living cells reduced MTT to purple fomazan, the absorbance at 595 nm of the whole solution was finally measured by DTX 880 Multimode Detector. With MEM medium as blank and untreated HeLa cells as control, we measure each concentration of these compounds in triplicate. The IC50 values of our hydrogelators were read from their activity curves (with the measurement of 8 different concentrations) in day 3.
# [1] = enzymatic hydrogelation with ALP; format: physicochemical; settings: water, pH 7.4
# Protocol: To investigate the enzymatic hydrogelation of the D-peptidic precursor 11b, we prepared a series of hydrogels formed by using ALP to treat 11b at different concentrations. After dissolving 1.0, 2.0, 3.0, 4.0, and 5.0 mg of 11b in 0.5 mL of water (pH 7.6), respectively, we obtained clear solutions of 11b with different concentrations. The treatment of the solutions of 11b with ALP (1.0 U/mL) afforded the molecules of hydrogelator 12b, which are less soluble than 11b and thus self-assemble in water to form hydrogels when the concentrations of 12b are sufficient.
# All the compounds were dissolved in de-ionized water. We then adjusted pH of the solutions carefully adding 1 M of NaOH and 1 M of HCl and measured the values by pH paper (pH 6.0-8.0). After prepared clear weakly basic solutions (pH 7.6 or 7.4), we then formed the hydrogels by adding enzymes (alkaline phosphatase).
# [2] = toxicity and relative weight of treated mice; format: in vivo, Balb/c mice; settings: hydrogel, single intratumoral injection, 14 days
# COX-1 (ovine) enzyme = biological target: T1, COX-1 (ovine) enzyme (Ovis aries, UniProt P05979); test: COX Fluorescent Inhibitor Screening Assay, COX-1; format: biochemical; settings: read-out: IC50 for inhibiting COX-1 enzyme
# T1 construct: purchased Cayman Chemical 700100
# T1 sequence (P05979 25-600): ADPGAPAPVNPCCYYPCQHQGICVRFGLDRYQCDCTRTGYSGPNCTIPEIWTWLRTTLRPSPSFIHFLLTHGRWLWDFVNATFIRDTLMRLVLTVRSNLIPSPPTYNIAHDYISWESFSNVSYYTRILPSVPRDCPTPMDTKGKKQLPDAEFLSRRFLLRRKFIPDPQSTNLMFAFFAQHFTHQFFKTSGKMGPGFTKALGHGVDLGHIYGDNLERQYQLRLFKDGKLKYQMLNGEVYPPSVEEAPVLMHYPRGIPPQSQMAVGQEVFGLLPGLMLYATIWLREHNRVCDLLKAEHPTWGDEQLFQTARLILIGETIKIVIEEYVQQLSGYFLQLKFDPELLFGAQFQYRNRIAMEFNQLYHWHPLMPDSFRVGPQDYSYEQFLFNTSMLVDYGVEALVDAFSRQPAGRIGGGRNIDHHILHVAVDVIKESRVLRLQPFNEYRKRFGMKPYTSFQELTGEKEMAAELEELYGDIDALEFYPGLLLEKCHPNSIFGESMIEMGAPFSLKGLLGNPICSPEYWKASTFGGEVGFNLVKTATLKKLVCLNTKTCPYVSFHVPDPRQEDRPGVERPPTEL
# Protocol: To study the drug efficacies of NSAID containing hydrogelators, here we used ‘COX Fluorescent Inhibitor Screening Assay Kit’ (700100; Cayman Chemical) to do in vitro inhibition assays for Npx and Npx containing hydrogelors 1, 2, 3, 4, 5, and 6. Each compound was tested by COX-1 (ovine) enzyme and COX-2 (human recombinant) enzyme separately in 96 well black assay plates. By utilizing the peroxidase component of COXs, we monitored the reaction between PGG2 and ADHP (10-acetyl-3,7-dihydroxyphenoxazine), which produced highly fluorescent compound resorufin. This resorufin can be easily analyzed by multimode detector with an excitation wavelength of 530-540 nm and an emission wavelength of 585-595 nm. All the compounds are assayed in triplicate. After the combination of 10 μl of inhibitors, 10 μl of Heme solution, 10 μL of fluorometric substrate, 10 μl of enzyme (either COX-1 or COX-2), and 150 μl of assay buffer, we quickly add 10 μl of arachidonic acid solution to initiate the reaction. Then we read the plate exactly after two minutes incubation at room temperature. In this experiment, we also measure the blank data without enzyme and inhibitors, and the control data without inhibitors. The IC50 values of these hydrogelators were read from their activity curves (FIG. 18), which were measured with 5 different concentrations of these hydrogelators (dissolved in DMSO).
SMILES,IC50 (HeLa cells) [µM],solubility [1],side effect from relative weights of mice [2],IC50 (COX-1 (ovine) enzyme) [µM]
"CC(=O)O[C@H]1C(=O)[C@@]2(C)[C@H]([C@H](OC(=O)c3ccccc3)[C@]3(O)C[C@H](OC(=O)[C@H](OC(=O)CCC(=O)NCCCC[C@@H](NC(=O)[C@@H](Cc4ccccc4)NC(=O)[C@@H](Cc4ccccc4)NC(=O)Cc4ccc5ccccc5c4)C(=O)N[C@H](Cc4ccc(OP(=O)(O)O)cc4)C(=O)O)[C@@H](NC(=O)c4ccccc4)c4ccccc4)C(C)=C1C3(C)C)[C@]1(OC(C)=O)CO[C@@H]1C[C@@H]2O [19b, 2-(Naphthalen-2-yl)acetyl-(D)-Phe-(D)-Phe-(D)-Lys(Taxol)-(D)-Tyr phosphate] ({Acetyl(2-naphthyl)}-[dF][dF][dK](Paclitaxel(2'-O-succinyl))[d(pY)]-OH)",0.0619,relatively good solubility,–,–
CC(=O)O[C@H]1C(=O)[C@@]2(C)[C@H]([C@H](OC(=O)c3ccccc3)[C@]3(O)C[C@H](OC(=O)[C@H](OC(=O)CCC(=O)NCCCC[C@@H](NC(=O)[C@@H](Cc4ccccc4)NC(=O)[C@@H](Cc4ccccc4)NC(=O)Cc4ccc5ccccc5c4)C(=O)N[C@H](Cc4ccc(O)cc4)C(=O)O)[C@@H](NC(=O)c4ccccc4)c4ccccc4)C(C)=C1C3(C)C)[C@]1(OC(C)=O)CO[C@@H]1C[C@@H]2O [20b] ({Acetyl(2-naphthyl)}-[dF][dF][dK](Paclitaxel(2'-O-succinyl))[dY]-OH),0.106,relatively good solubility,limit the side effect of Taxol to the mice,–
"COc1ccc2cc([C@H](C)C(=O)NCCCC[C@@H](NC(=O)[C@@H](Cc3ccccc3)NC(=O)[C@H](N)Cc3ccccc3)C(=O)O)ccc2c1 [compound 5, D-Phe-D-Phe-D-Lys(naproxen)]",–,–,–,476
"COc1ccc2cc([C@H](C)C(=O)NCCCC[C@@H](NC(=O)[C@@H](Cc3ccccc3)NC(=O)[C@H](N)Cc3ccccc3)C(=O)N[C@H](Cc3ccc(O)cc3)C(=O)O)ccc2c1 [compound 6, D-Phe-D-Phe-D-Lys(naproxen)-D-Tyr] (H-[dF][dF][dK](Naproxen)[dY]-OH)",–,–,–,367
